T/C data for 28 molecules are collected here from PubChem BioAssay AID330 (DTP/NCI, 2004).

Where “and” joins values, the source holds several entries; their conditions need not be identical. Equal entries are not always repeated. Toxic doses and inconclusive results are not listed. Peptide text beside a SMILES is read from it.

For this assay, the system named is P388 leukemia ip, CD2F1 mice, survival T/C. Description: NCI In Vivo Anticancer Drug Screen. Data for tumor model P388 Leukemia (intraperitoneal) in CD2F1 (CDF1) mice. Particulars: endpoint: median survival time, higher = longer survival. A digest of the protocol:
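Mice carrying the transplanted tumor received test compound or vehicle. Survival was recorded in each group, and the value is the treated-group measurement divided by that of the vehicle-treated control group.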

[1] abbreviates: dose: 50.0 mg/kg/injection, schedule: Q01DX005 (ip), vehicle: Klucel (hydroxypropylcellulose) (HPC).
Setting [2] is: dose: 100.0 mg/kg/injection, schedule: Q01DX005 (ip), vehicle: Klucel (hydroxypropylcellulose) (HPC).
The mark [3] stands for this setting: dose: 200.0 mg/kg/injection, schedule: Q01DX005 (ip), vehicle: Klucel (hydroxypropylcellulose) (HPC).
The mark [4] stands for this setting: dose: 25.0 mg/kg/injection, schedule: Q01DX009 (ip), vehicle: saline with Tween-80.
Where [5] appears, read: dose: 50.0 mg/kg/injection, schedule: Q01DX009 (ip), vehicle: saline with Tween-80.
Where [6] appears, read: dose: 50.0 mg/kg/injection, schedule: Q01DX005 (ip), vehicle: saline with Tween-80.
[7] abbreviates: dose: 100.0 mg/kg/injection, schedule: Q01DX005 (ip), vehicle: saline with Tween-80.
Setting [8] is: dose: 200.0 mg/kg/injection, schedule: Q01DX005 (ip), vehicle: saline with Tween-80.
Setting [9] is: dose: 12.5 mg/kg/injection, schedule: Q01DX005 (ip), vehicle: saline.
Where [10] appears, read: dose: 25.0 mg/kg/injection, schedule: Q01DX005 (ip), vehicle: saline.
[11] abbreviates: dose: 6.25 mg/kg/injection, schedule: Q01DX005 (ip), vehicle: saline with Tween-80.
[12] abbreviates: dose: 12.5 mg/kg/injection, schedule: Q01DX005 (ip), vehicle: saline with Tween-80.
[13] abbreviates: dose: 25.0 mg/kg/injection, schedule: Q01DX005 (ip), vehicle: saline with Tween-80.
Setting [14] is: dose: 60.0 mg/kg/injection, schedule: Q01DX005 (ip), vehicle: saline with Tween-80.
[15] abbreviates: dose: 120.0 mg/kg/injection, schedule: Q01DX005 (ip), vehicle: saline with Tween-80.
Setting [16] is: dose: 240.0 mg/kg/injection, schedule: Q01DX005 (ip), vehicle: saline with Tween-80.
[17] abbreviates: dose: 50.0 mg/kg/injection, schedule: Q01DX005 (ip), vehicle: saline.
[18] abbreviates: dose: 100.0 mg/kg/injection, schedule: Q01DX005 (ip), vehicle: saline.
Setting [19] is: dose: 200.0 mg/kg/injection, schedule: Q01DX005 (ip), vehicle: saline.

Take `CCOC(=O)/C(N=Nc1ccccc1Cl)=C(\C)O`: the T/C is 101 % of control under setting [1], 101 % of control under setting [2] and 101 % of control under setting [3].

For the molecule `CCCCCC(C)COS(=O)(=O)c1ccc([N+](C)(C)C)cc1` (centres undefined), the T/C reads like this: (dose: 12.5 mg/kg/injection, schedule: Q01DX009 (ip), vehicle: saline with Tween-80) 102 % of control; under setting [4], 103 % of control; under setting [5], 105 % of control.

`COc1cc2c(cc1C)C1=C(C)C(=O)OC1[C@@H](O)[C@@H]2C` (some centres undefined): the T/C (dose: 2.25 mg/kg/injection, schedule: Q01DX005 (ip), vehicle: Klucel (hydroxypropylcellulose) (HPC)) is 104 % of control; the T/C (dose: 4.5 mg/kg/injection, schedule: Q01DX005 (ip), vehicle: Klucel (hydroxypropylcellulose) (HPC)) is 101 % of control; the T/C (dose: 9.0 mg/kg/injection, schedule: Q01DX005 (ip), vehicle: Klucel (hydroxypropylcellulose) (HPC)) was 101 % of control; the T/C (dose: 18.0 mg/kg/injection, schedule: Q01DX005 (ip), vehicle: Klucel (hydroxypropylcellulose) (HPC)) was 94 % of control.

For `COCCc1nnnn1C`, the T/C was 102 % of control under setting [6], 98 % of control under setting [7] and 114 % of control under setting [8].

Consider `Cc1c2c(c(O)c3sccc13)C(C)(C)OC2=O`, for which the T/C was 101 % of control under setting [6], 99 % of control under setting [7] and 97 % of control under setting [8].

Take `NC(=O)NC(c1ccc(O)cc1)c1cc2c(cc1O)OCO2` (centres undefined): the T/C runs as follows: (dose: 60.0 mg/kg/injection, schedule: Q01DX005 (ip), vehicle: Klucel + Tween-80) 86 % of control; (dose: 120.0 mg/kg/injection, schedule: Q01DX005 (ip), vehicle: Klucel + Tween-80) 86 % of control; (dose: 240.0 mg/kg/injection, schedule: Q01DX005 (ip), vehicle: Klucel + Tween-80) 86 % of control.

Consider `CN(C)S(=O)(=O)CCNC(=O)N(CCCl)N=O`, for which the T/C by setting is: (dose: 2.5 mg/kg/injection, schedule: Q01DX005 (ip), vehicle: saline) 100 % of control; (dose: 5.0 mg/kg/injection, schedule: Q01DX005 (ip), vehicle: saline) 104 % of control; (dose: 10.0 mg/kg/injection, schedule: Q01DX005 (ip), vehicle: saline) 119 % of control and 218 % of control; (dose: 20.0 mg/kg/injection, schedule: Q01DX005 (ip), vehicle: saline) 203 % of control and 250 % of control.

Turning to `COc1cc2c(cc1OC)C(CC1CCN3CCCCC3C1)NCC2` (centres undefined), the T/C (dose: 87.5 mg/kg/injection, schedule: Q04DX003 (ip), vehicle: saline) was 103 % of control.

For `Nc1nc(N)c2c(ccc3nccc32)[nH]1`, the T/C by setting is: (dose: 6.25 mg/kg/injection, schedule: Q01DX005 (ip), vehicle: saline) 103 % of control; under setting [9], 103 % of control; under setting [10], 110 % of control.

As to `CC1(CBr)C2CCC1C(=O)C2` (centres undefined), the T/C under setting [11] is 100 % of control, the T/C under setting [12] is 96 % of control and the T/C under setting [13] is 96 % of control.

In the case of `CC12CCC3(CO3)CC1CCC1C2CCC2(C)C1CCC21CO1` (centres undefined), the T/C is, setting by setting: (dose: 100.0 mg/kg/injection, schedule: Q01DX001 (ip), vehicle: saline with Tween-80) 102 % of control; (dose: 200.0 mg/kg/injection, schedule: Q01DX001 (ip), vehicle: saline with Tween-80) 99 % of control; (dose: 400.0 mg/kg/injection, schedule: Q01DX001 (ip), vehicle: saline with Tween-80) 88 % of control.

Take `CC(O)C(C)(C)S(=O)(=O)CCCc1ccccc1` (centres undefined): the T/C runs as follows: under setting [14], 107 % of control; under setting [15], 107 % of control; under setting [16], 108 % of control.

Turning to `O=c1cc(C(F)(F)F)c2cc3c4c(c2o1)CCCN4CCC3`, the T/C under setting [1] was 106 % of control, the T/C under setting [2] was 100 % of control and the T/C under setting [3] is 99 % of control.

Turning to `O=C1CN(c2ccccc2)C(=O)CN1/N=C/c1ccc[nH]1`, the T/C under setting [11] was 95 % of control, the T/C under setting [12] is 100 % of control and the T/C under setting [13] was 97 % of control.

Turning to `NCC(=O)NCC(=O)O` (H-Gly-Gly-OH), the T/C by setting is: under setting [17], 100 % of control; under setting [18], 104 % of control; under setting [19], 100 % of control.

For `CN(/N=C/c1ccc2c(c1)OCO2)c1ccc([N+](=O)[O-])cc1`, the T/C was 89 % of control under setting [1] and 89 % of control under setting [2].

Regarding `CC1=CCC2C(=O)N(c3cc(C)on3)C(=O)C2C1` (centres undefined), the T/C under setting [14] was 97 % of control, the T/C under setting [15] was 100 % of control and the T/C under setting [16] is 90 % of control.

Turning to `CCOC(=O)CNc1sc(=S)[nH]c1C(=O)OCC`, the T/C was 100 % of control under setting [1], 91 % of control under setting [2] and 92 % of control under setting [3].

With `CNC(=O)O/N=C(\SC)C(=O)N(C)C`, the T/C is 102 % of control (dose: 0.87 mg/kg/injection, schedule: Q01DX005 (ip), vehicle: saline) and 100 % of control (dose: 1.75 mg/kg/injection, schedule: Q01DX005 (ip), vehicle: saline).

For `CC(C)C12C=CC(C)(CC1)OO2` (centres undefined), the T/C reads like this: under setting [4], 104 % of control; under setting [5], 100 % of control and 102 % of control.

With `COc1ccc(C2=NCC2(Cl)Cl)cc1`, the T/C is 97 % of control (dose: 12.5 mg/kg/injection, schedule: Q01DX009 (ip), vehicle: other); 95 % of control (dose: 25.0 mg/kg/injection, schedule: Q01DX009 (ip), vehicle: other); 105 % of control (dose: 50.0 mg/kg/injection, schedule: Q01DX009 (ip), vehicle: other); 96 % of control (dose: 100.0 mg/kg/injection, schedule: Q01DX009 (ip), vehicle: other); 99 % of control (dose: 200.0 mg/kg/injection, schedule: Q01DX009 (ip), vehicle: other).

`O=[N+]([O-])c1ccc(/C=C(/c2ccc([N+](=O)[O-])o2)S(=O)(=O)c2ccccc2)cc1`: the T/C was 97 % of control (dose: 50.0 mg/kg/injection, schedule: Q01DX009 (ip), vehicle: suspension in saline); 103 % of control (dose: 100.0 mg/kg/injection, schedule: Q01DX009 (ip), vehicle: suspension in saline); 97 % of control (dose: 200.0 mg/kg/injection, schedule: Q01DX009 (ip), vehicle: suspension in saline).

On to `c1ccc(N2CCN(c3ccccc3)C2=C2N(c3ccccc3)CCN2c2ccccc2)cc1`, for which the T/C (dose: 3.0 mg/kg/injection, schedule: Q01DX005 (ip), vehicle: saline) is 105 % of control; the T/C (dose: 6.0 mg/kg/injection, schedule: Q01DX005 (ip), vehicle: saline) is 107 % of control; the T/C (dose: 12.0 mg/kg/injection, schedule: Q01DX005 (ip), vehicle: saline) was 105 % of control; the T/C under setting [9] was 114 % of control; the T/C under setting [10] is 99 % of control and 118 % of control.

As to `CN(C)CCCN1C=CC(=C2C(=O)c3ccccc3C2=O)C=C1`, the T/C is 88 % of control (dose: 50.0 mg/kg/injection, schedule: Q01DX009 (ip), vehicle: Klucel (hydroxypropylcellulose) (HPC)); 86 % of control (dose: 100.0 mg/kg/injection, schedule: Q01DX009 (ip), vehicle: Klucel (hydroxypropylcellulose) (HPC)); 97 % of control (dose: 200.0 mg/kg/injection, schedule: Q01DX009 (ip), vehicle: Klucel (hydroxypropylcellulose) (HPC)).

Consider `C=CC1C(=O)N(C)[C@H](C(C)(C)C)N1C(=O)c1ccccc1` (some centres undefined), for which the T/C under setting [17] was 100 % of control, the T/C under setting [18] is 93 % of control and the T/C under setting [19] is 113 % of control.

On to `NC1CCC(O)CC1C(=O)O` (centres undefined), for which the T/C was 99 % of control under setting [6], 103 % of control under setting [7] and 86 % of control under setting [8].

Regarding `Cc1ccc(C(C)(C)C[P+](C)(c2ccccc2)c2ccccc2)cc1`, the T/C reads like this: (dose: 12.5 mg/kg/injection, schedule: Q01DX009 (ip), vehicle: Klucel (hydroxypropylcellulose) (HPC)) 105 % of control; (dose: 25.0 mg/kg/injection, schedule: Q01DX009 (ip), vehicle: Klucel (hydroxypropylcellulose) (HPC)) 103 % of control.

As for `COC(=O)c1nnn(-c2cccc(C(F)(F)F)c2)c1C(=O)c1ccc(Cl)c(Cl)c1`, the T/C is, setting by setting: under setting [14], 99 % of control; under setting [15], 100 % of control; under setting [16], 92 % of control.
